The source of these data is US8440842B2, “Antimicrobial compounds, their synthesis and their use for treatment of mammalian infections” (Leibniz-Institut fuer Naturstoff-Forschung und …, priority 2007, dated 2013).

Data set [1] concerns M. fortuitum B. The experiment in a line: MIC by broth micro dilution method in Mueller-Hinton broth (NCCLS). The class given is cell-based. The settings on record: Mycolicibacterium fortuitum, read-out: M. fortuitum MIC. The procedure:
(§1) Determination of the in vitro inhibitory activity of the compounds of the invention against mycobacteria.
(§2) The antibacterial activities of the compounds against Mycobacterium smegmatis SG 987, M. aurum SB66, M. vaccae IMET 10670 and M. fortuitum B were tested by determination of minimal inhibitory concentrations (MIC) by the broth micro dilution method in Mueller-Hinton broth (Difco) according to the NCCLS guidelines [National Committee for Clinical Laboratory Standards: Methods for dilution antimicrobial susceptibility tests for bacteria that grow aerobically; 5th Ed.; Villanova, Ed.; Approved standard Document M7-A5. NCCLS, (2000)].

For data set [2], the system named is M. vaccae IMET 10670. The description is as above. The class given is cell-based. The settings on record: Mycolicibacterium vaccae. The procedure:
as §1, §2

Data set [3] relates to Mycobacterium smegmatis SG 987. The data set is described as above. The data set is classed as cell-based. The following applies: Mycolicibacterium smegmatis. The procedure: as §1, §2
For data set [4], the system named is M. tuberculosis H37Rv. The experiment in a line: resazurin reduction assay (MIC96), Alamar Blue method. The following applies: Mycobacterium tuberculosis, read-out: minimal inhibitory concentrations (MIC) M. tuberculosis H37Rv. The data set is classed as cell-based. The procedure:
Activity against M. tuberculosis H37Rv was determined by the resazurin reduction assay (MIC96) too. The method was described in detail in: P. Quillardet, O. Huisman, R. D'Ari, M. Hofnung, Proc. Natl. Acad. Sci. USA, 1982, 79, 5971-5; J. C. Palomino, A. Martin, M. Camacho, H. Guerra, J. Swings, F. Portaels, Antimicrob. Agents Chemother., 2002, 46, 2720-2.

For data set [5], the system named is M. tuberculosis H37Rv. Put plainly: MIC and MBC, classical method (liquid Shkolnikova medium, Lowenstein-Jensen medium). The data set is classed as cell-based. The following applies: Mycobacterium tuberculosis; for MIC: 336 h.
Where [6] appears, read: broth micro dilution, Mueller-Hinton broth.
The mark [7] stands for this setting: IMET10670, broth micro dilution, Mueller-Hinton broth, read-out: M. vaccae MIC.
Where [8] appears, read: SG987, broth micro dilution, Mueller-Hinton broth, read-out: M. smegmatis MIC.
Setting [9] is: strain H37Rv, liquid Shkolnikova medium, 14 days at 37° C., read-out: MIC.
[10] abbreviates: strain H37Rv, solid drug free Lowenstein-Jensen medium, 21-28 days, read-out: MBC.

≈ marks a conversion by molar mass, not a printed value. Where two headings read alike, the source gives them in different places.

Compound `O=c1nc(N2CCN(c3ccc(Cl)cc3)CC2)sc2c([N+](=O)[O-])cc([N+](=O)[O-])cc12` [Compound 1, 2-[4-(4-Chlorophenyl)piperazin-1-yl]-6,8-dinitro-4H-1,3-benzothiazin-4-one] came in with a melting point of 279 to 281 °C. The MIC in data set [1] turned out to be 780 ng/mL (≈ 1740 nM). The MIC in data set [2] (IMET10670, read-out: M. vaccae MIC) came to 6.2 ng/mL (≈ 13.8 nM). Besides, in data set [3] (SG987, read-out: M. smegmatis MIC), the MIC stood at 780 ng/mL (≈ 1740 nM).
For the compound `Cc1ccc(Cl)cc1N1CCN(c2nc(=O)c3cc(C(F)(F)F)cc([N+](=O)[O-])c3s2)CC1` [Compound 2, 2-[4-(5-chloro-2-methylphenyl)piperazin-1-yl]-8-nitro-6-(trifluoromethyl)-4H-1,3-benzothiazin-4-one], the melting point fell in the range of 158 to 161 °C. For the same compound, the MIC in data set [1] (setting [6]) turned out to be 31 ng/mL (≈ 63.9 nM). Moreover, the MIC in data set [2] (setting [7]) worked out at 8 ng/mL (≈ 16.5 nM). In data set [3] (setting [8]), the MIC worked out at 50 ng/mL (≈ 103 nM).
Compound `O=c1nc(N2CCN(c3cccc(C(F)(F)F)c3)CC2)sc2c([N+](=O)[O-])cc(C(F)(F)F)cc12` [Compound 3, 8-Nitro-6-(trifluoromethyl)-2-{4-[3-(trifluoromethyl)phenyl]piperazin-1-yl}-4H-1,3-benzothiazin-4-one] returned a melting point of 201 to 203 °C. Further, the MIC in data set [1] (setting [6]) came to 3.1 ng/mL (≈ 6.15 nM). For the same compound, in data set [2] (setting [7]), the MIC stood at 3.1 ng/mL (≈ 6.15 nM). For the same compound, in data set [3] (setting [8]), the MIC was found to be 40 ng/mL (≈ 79.3 nM).
`CCN(Cc1ccccc1)c1nc(=O)c2cc(C(F)(F)F)cc([N+](=O)[O-])c2s1` [Compound 4, 2-[Benzyl(ethyl)amino]-8-nitro-6-(trifluoromethyl)-4H-1,3-benzothiazin-4-one] gave a melting point of 94 to 97 °C. For the same compound, in data set [1] (setting [6]), the MIC came to 6.2 ng/mL (≈ 15.1 nM). In data set [2] (setting [7]), the MIC worked out at 0.8 ng/mL (≈ 1.95 nM). In data set [3] (setting [8]), the MIC was found to be 6.2 ng/mL (≈ 15.1 nM). For the same compound, the MIC in data set [4] came out at 0.002 µg/mL (≈ 4.89 nM).
`CN(Cc1ccccc1)c1nc(=O)c2cc(C(F)(F)F)cc([N+](=O)[O-])c2s1` [Compound 5, 2-[Benzyl(methyl)amino]-8-nitro-6-(trifluoromethyl)-4H-1,3-benzothiazin-4-one] displayed a melting point of 120 to 124 °C. Besides, the MIC in data set [1] (setting [6]) came to 15.6 ng/mL (≈ 39.5 nM). Further, the MIC in data set [2] (setting [7]) is 0.5 ng/mL (≈ 1.26 nM). Moreover, the MIC in data set [3] (setting [8]) is 15.6 ng/mL (≈ 39.5 nM). In data set [5] (H37RV), this compound registered an MBC of 3.12 µg/mL (≈ 7890 nM) and an MIC of 1.56 µg/mL (≈ 3950 nM). In addition, the MIC in data set [4] is 0.003 µg/mL (≈ 7.59 nM).
In turn, `O=c1nc(N2CCN(c3ccccc3F)CC2)sc2c([N+](=O)[O-])cc(C(F)(F)F)cc12` [Compound 6, 2-[4-(2-Fluorophenyl)piperazin-1-yl]-8-nitro-6-(trifluoromethyl)-4H-1,3-benzothiazin-4-one] had a melting point of 164 to 168 °C. The MIC in data set [1] (setting [6]) was 5 ng/mL (≈ 11 nM). Also, the MIC in data set [2] (setting [7]) amounted to 5 ng/mL (≈ 11 nM). Besides, the MIC in data set [3] (setting [8]) was determined as 5 ng/mL (≈ 11 nM).
The compound `O=c1nc(N2CCN(Cc3ccccc3)CC2)sc2c([N+](=O)[O-])cc(C(F)(F)F)cc12` [Compound 7, 2-(4-Benzylpiperazin-1-yl)-8-nitro-6-(trifluoromethyl)-4H-1,3-benzothiazin-4-one] came in with a melting point of 161 to 163 °C. Also, in data set [1] (setting [6]), the MIC was found to be 50 ng/mL (≈ 111 nM). Besides, in data set [2] (setting [7]), the MIC was determined as 50 ng/mL (≈ 111 nM). Moreover, in data set [3] (setting [8]), the MIC came to 50 ng/mL (≈ 111 nM).
Consider `O=c1nc(NCc2ccccc2)sc2c([N+](=O)[O-])cc(C(F)(F)F)cc12` [Compound 8, 2-(Benzylamino)-8-nitro-6-(trifluoromethyl)-4H-1,3-benzothiazin-4-one], for which the melting point is 192 to 194 °C. Also, the MIC in data set [1] (setting [6]) came to 0.78 ng/mL (≈ 2.05 nM). In addition, the MIC in data set [2] (setting [7]) is less than 0.0121 ng/mL. For the same compound, in data set [3] (setting [8]), the MIC turned out to be 0.78 ng/mL (≈ 2.05 nM). In data set [5] (H37RV), this compound gave an MBC of 1.56 µg/mL (≈ 4090 nM) and an MIC of 1.56 µg/mL (≈ 4090 nM). Also, in data set [4], the MIC was 0.05 µg/mL (≈ 131 nM).
For the compound `C[C@H](c1ccccc1)N(C)c1nc(=O)c2cc(C(F)(F)F)cc([N+](=O)[O-])c2s1` [Compound 9, 2-{Methyl[(1R)-1-phenylethyl]amino}-8-nitro-6-(trifluoromethyl)-4H-1,3-benzothiazin-4-one], the melting point lay within 110 to 113 °C. Also, the MIC in data set [1] (setting [6]) is less than 0.0121 ng/mL. The MIC in data set [2] (setting [7]) was less than 0.0121 ng/mL. The MIC in data set [3] (setting [8]) is less than 0.0121 ng/mL. Also, in data set [4], the MIC was 0.0004 µg/mL (≈ 0.977 nM).
As for `CN(Cc1ccccc1)c1nc(=O)c2cc(Cl)cc([N+](=O)[O-])c2s1` [Compound 10, 2-[Benzyl(methyl)amino]-6-chloro-8-nitro-4H-1,3-benzothiazin-4-one], the melting point lay in the range of 138 to 141 °C. In addition, the MIC in data set [1] (setting [6]) is 1.56 ng/mL (≈ 4.31 nM). Also, in data set [2] (setting [7]), the MIC is 0.31 ng/mL (≈ 0.857 nM). Moreover, the MIC in data set [3] (setting [8]) is 6.2 ng/mL (≈ 17.1 nM). Moreover, in data set [5] (setting [9]), the MIC is less than 0.39 µg/mL. In data set [5] (setting [10]), the MBC is 0.78 µg/mL (≈ 2160 nM). The MIC in data set [4] worked out at 0.025 µg/mL (≈ 69.1 nM).
Regarding `NNC(=O)c1ccncc1` [Isoniazid (INH), Isoniazid, reference compound], the values for the MIC in data set [5] (setting [9]) and in data set [4] were 0.78 µg/mL (≈ 5690 nM) and 0.125 µg/mL (≈ 911 nM), respectively. Besides, in data set [5] (setting [10]), the MBC is 1.56 µg/mL (≈ 11400 nM).
